Data taken from PubChem BioAssay (NCI).
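All cell lines were grown in 96-well plates and treated with compound for 48 hours. GI50: concentration for 50% inhibition of growth. TGI: concentration producing complete growth inhibition.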

Columns and labels:
Experiment in all cases: growth of human tumour cells (NCI), 48 h
[1] = test system: SNB-75 CNS
[2] = test system: RXF 393 renal
[3] = test system: EKVX NSCLC
[4] = test system: SK-MEL-28 melanoma
[5] = test system: MALME-3M melanoma
[6] = test system: LOX IMVI melanoma
[7] = test system: PC-3 prostate
[8] = test system: IGROV1 ovarian
[9] = test system: MOLT-4 leukemia
[10] = test system: A498 renal
[11] = test system: SK-OV-3 ovarian
[12] = test system: NCI-H460 lung
[13] = test system: NCI-H522 lung
[14] = test system: UACC-62 melanoma
[15] = test system: RPMI-8226 leukemia
[16] = test system: U251 CNS
[17] = test system: HT29 colon
[18] = test system: MDA-MB-231 breast
[19] = test system: NCI-H226 lung
[20] = test system: HCT-116 colon
[21] = test system: A549 NSCLC
[22] = test system: SF-295 CNS
[23] = test system: T-47D breast
[24] = test system: M14 melanoma
[25] = test system: KM12 colon
[26] = test system: SF-268 CNS
[27] = test system: NCI/ADR-RES ovarian
[28] = test system: UO-31 renal
[29] = test system: SK-MEL-5 melanoma
[30] = test system: HS 578T breast
[31] = test system: HL-60(TB) leukemia
[32] = test system: HOP-62 NSCLC
[33] = test system: HCC-2998 colon
[34] = test system: OVCAR-5 ovarian
[35] = test system: MCF7 breast
[36] = test system: SR leukemia
[37] = test system: UACC-257 melanoma
[38] = test system: SW-620 colon
[39] = test system: COLO 205 colon
[40] = test system: BT-549 breast
[41] = test system: ACHN renal
[42] = test system: MDA-MB-435
[43] = test system: SNB-19 CNS
[44] = test system: OVCAR-8 ovarian
[45] = test system: DU-145 prostate
[46] = test system: SK-MEL-2 melanoma
[47] = test system: OVCAR-4 ovarian
[48] = test system: K-562 leukemia
[49] = test system: HOP-92 NSCLC
[50] = test system: 786-0 renal
[51] = test system: TK-10 renal
[52] = test system: CAKI-1 renal
[53] = test system: SN12C renal
[54] = test system: SF-539 CNS

Structure (SMILES): NC(N)=Nc1ccc(Oc2cccc(Oc3ccc(Cl)c(C(F)(F)F)c3)c2)cn1
- GI50 [1]: 1330 nM
- TGI [1]: 2670 nM
- GI50 [2]: 1790 nM
- TGI [2]: 3430 nM

Structure (SMILES): COc1cc(NC2=C(Cl)C(=O)c3nc(C)ccc3C2=O)cc(OC)c1
- GI50 [3]: 1600 nM
- TGI [3]: 3120 nM
- GI50 [4]: 1790 nM
- TGI [4]: 3230 nM
- GI50 [5]: 1760 nM
- TGI [5]: 3280 nM
- GI50 [6]: 1100 nM
- TGI [6]: 2320 nM
- GI50 [7]: 2560 nM
- TGI [7]: 10400 nM
- GI50 [8]: 1730 nM
- TGI [8]: 3550 nM
- GI50 [9]: 1500 nM
- TGI [9]: 7000 nM
- GI50 [10]: 2350 nM
- TGI [10]: 11400 nM
- GI50 [11]: 12600 nM
- TGI [11]: 25100 nM
- GI50 [12]: 2680 nM
- TGI [12]: 8070 nM
- GI50 [13]: 1560 nM
- TGI [13]: 3060 nM
- GI50 [14]: 1770 nM
- TGI [14]: 3420 nM
- GI50 [15]: 1790 nM
- TGI [15]: 5190 nM
- GI50 [16]: 1920 nM
- TGI [16]: 4440 nM
- GI50 [17]: 1870 nM
- TGI [17]: 3480 nM
- GI50 [18]: 1460 nM
- TGI [18]: 3080 nM
- GI50 [19]: 2820 nM
- TGI [19]: 8350 nM
- GI50 [1]: 1940 nM
- TGI [1]: 5370 nM
- GI50 [20]: 1530 nM
- TGI [20]: 2880 nM
- GI50 [21]: 2830 nM
- TGI [21]: 8970 nM
- GI50 [22]: 1990 nM
- TGI [22]: 5410 nM
- GI50 [23]: 1500 nM
- TGI [23]: 3620 nM
- GI50 [24]: 1690 nM
- TGI [24]: 3090 nM
- GI50 [25]: 13000 nM
- TGI [25]: 26600 nM
- GI50 [26]: 3250 nM
- TGI [26]: 14400 nM
- GI50 [27]: 1810 nM
- TGI [27]: 4470 nM
- GI50 [28]: 1690 nM
- TGI [28]: 3060 nM
- GI50 [29]: 1620 nM
- TGI [29]: 2970 nM
- GI50 [30]: 2430 nM
- TGI [30]: 5780 nM
- GI50 [31]: 1380 nM
- TGI [31]: 4650 nM
- GI50 [32]: 4260 nM
- TGI [32]: 14100 nM
- GI50 [33]: 1810 nM
- TGI [33]: 3260 nM
- GI50 [34]: 2380 nM
- TGI [34]: 5790 nM
- GI50 [35]: 1820 nM
- TGI [35]: 5330 nM
- GI50 [36]: 350 nM
- TGI [36]: 2430 nM
- GI50 [37]: 1510 nM
- TGI [37]: 2850 nM
- GI50 [38]: 1760 nM
- TGI [38]: 3470 nM
- GI50 [39]: 1680 nM
- TGI [39]: 3080 nM
- GI50 [40]: 1970 nM
- TGI [40]: 3400 nM
- GI50 [41]: 1670 nM
- TGI [41]: 3040 nM
- GI50 [42]: 1720 nM
- TGI [42]: 3570 nM
- GI50 [43]: 5820 nM
- TGI [43]: 18800 nM
- GI50 [44]: 1640 nM
- TGI [44]: 3280 nM
- GI50 [45]: 1840 nM
- TGI [45]: 3550 nM
- GI50 [46]: 1590 nM
- TGI [46]: 3100 nM
- GI50 [47]: 1400 nM
- TGI [47]: 2820 nM
- GI50 [2]: 1630 nM
- TGI [2]: 2990 nM
- GI50 [48]: 381 nM
- TGI [48]: > 100000 nM
- GI50 [49]: 1730 nM
- TGI [49]: 3170 nM
- GI50 [50]: 1520 nM
- TGI [50]: 2880 nM
- GI50 [51]: 2320 nM
- TGI [51]: 3780 nM
- GI50 [52]: 1760 nM
- TGI [52]: 3150 nM
- GI50 [53]: 1710 nM
- TGI [53]: 3250 nM
- GI50 [54]: 1790 nM
- TGI [54]: 3220 nM
